From patent publication US20180086817A1, “Preventing, Treating or Arresting Alzheimer's, Stroke, Cardiovascular and other Amyloid Related Diseases” (priority 2016, published 2018)

Assays:
cellular glutathione = conditions: cited from earlier work
L68Q cystatin C = target: T1, L68Q cystatin C (Homo sapiens, UniProt P01034, L94Q); assay: Preliminary trial of N-acetylcysteine in HCCAA patients expressing L68Q cystatin C, with biopsy; format: in vivo
T1 construct: confirmed by genetic screen to express L68Q cystatin C; from tissue; host or cells: HCCAA patients; biopsy (tissue not given)
T1 sequence (P01034 27-146 L94Q): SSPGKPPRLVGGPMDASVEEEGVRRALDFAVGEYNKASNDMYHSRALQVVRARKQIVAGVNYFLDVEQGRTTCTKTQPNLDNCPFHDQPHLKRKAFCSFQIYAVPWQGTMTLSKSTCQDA
Experimental: For an early test of effectiveness of glutathione supportive therapy in the treatment of HCCAA and similar disease involving plaque formation, human trials are planned using accepted and previously approved therapeutic interventions. Initial trials involve n-acetylcysteine based on its chemistry and historical acceptance in human therapies. Doses ranging from as low as 200 mg/day, but at least in the early trials, at higher levels to emphasize effect have been proposed with initial regulatory approvals in high risk HCCAA patients.
Three persons who had been identified through characteristic HCCAA symptoms confirmed by genetic screen to express L68Q cystatin C agreed to participate in a preliminary trial with a prototype drug to support antioxidant and other effects of GSH. N-acetylcysteine was used as a GSH-support/anti-cystatin-C-polymerization archetypical drug for conceptual proof and support of the hypotheses supporting this invention. […] One patient fully complied with the prescribed protocol. Two patients were only partially compliant. The fully compliant patient presented with a 50% reduction in plaques observed on biopsy.
Treatments are continuing, augmented by confirmatory/advisory biopsies. Biopsy intervals may be approximately weekly, but longer intervals are envisioned as sufficient to monitor effects and dosages and to encourage compliance in testing and treatment maintenance. For example, biopsy intervals may be weekly, biweekly, monthly, bimonthly, quarterly, semi-annual, annual, etc. Biopsy appointments may be used both for treatment/disease monitoring, but also to maintain patient attention and interaction. Medical advisory panels and insurance issues may also be considered in determining the frequency and type(s) of biopsies.

disease course (L68Q cystatin C; all three HCCAA patients (L68Q cystatin C), one fully and two partially compliant)	reduction in plaques observed on biopsy (L68Q cystatin C; fully compliant patient)	aggregated protein previously observed (L68Q cystatin C; one of the partially compliant patients)	disease course (L68Q cystatin C; remaining non-compliant patient)	SMILES	effect on glutathione over time (cellular glutathione; 25 mg/kg OTC in conjunction with 800 mg/day glutathione IM)	time by which effect wanes in plasma (cellular glutathione; dose of about 22-65 mg/kg, post administration)	cellular glutathione (cellular glutathione; dose of about 22-65 mg/kg, shortly after administration)
–	–	–	–	O=C1N[C@H](C(=O)O)CS1 [OTC, L-2-oxothiazolidine-4-carboxolate]	continued effect	≤ 8 h	double
disease arrest	50%	significant reduction	disease arrest	CC(=O)N[C@@H](CS)C(=O)O [N-acetylcysteine]	–	–	–
